Data reported in patent US7427640B1, “Oil materials comprising dimerdiol ester and cosmetics comprising the ester” (Nippon Fine Chemical Co., Ltd., priority 1999, dated 2008).
Like-named read-outs stand apart in the source and are kept apart here.

Tests used:
Format in all cases: physicochemical
[1] = Oxidation stability, Rancimat 676 automatic oils and fats stability test
Source text: Index of the oxidation stability was expressed by the time until conductance of the trapped water started rising. […] Index of the oxidation stability was expressed by the time until conductance of the trapped water started rising.

[2] = Alkali hydrolysis resistance; settings: 0.8 g of sample heated at 80° C. for 3 hours in 25 mL of 0.05 N KOH-ethanol solution
Description: Alkali hydrolysis resistance of the dimerdiol esters obtained in Examples 1, 3, 5, 7, 9 and 11 were measured. The alkali hydrolysis resistance was expressed by the decomposition ratio of 0.8 g of sample which was heated at 80° C. for 3 hours in 25 mL of 0.05 N of KOH-ethanol solution.

[3] = Refractive index (refractometer Model 3)
Description: Refractive index of the dimerdiol esters obtained in Examples 1, 3, 5, 7, 9 and 11 were measured. Each of the refractive index was measured at 30° C. using a refractometer Model 3 (Manufactured by ATAGO BUSSAN Ltd.).
Refractive index of the esters obtained in Examples 28-35 were measured. Each of the refractive index was measured at 20° C. using a refractometer Model 3 (Manufactured by ATAGO BUSSAN Ltd.).

[4] = Gloss of wax-solidified ester (handy glossmeter); settings: coated on paraffin paper, intensity of reflected light at 60°
Description: Each of the solidified product was coated on paraffin paper and gloss was measured with a handy glossmeter manufactured by HORIBA Ltd. Gloss was expressed by intensity of light reflected on the coated surface of paraffin paper at incident angle/reflection angle of 60°.

[5] = Dispersability for pigment, organic pigment Red No. 202
Source text: (§1) Titanium dioxide, red iron oxide and organic pigment used in the measurement are PIGMOLITE CR-50, PIGMOLITE BENGARA No. 211 and Red 202, respectively, manufactured by DAITO KASEI KOGYO Co. Ltd. The dispersability is expressed by amount (g) of the tested sample per 100 g of the pigment at wet point (W.P) and flow point (F.P).

[6] = Dispersability for pigment, red iron oxide; settings: amount of tested sample per 100 g of the pigment at wet point
Source text: as §1

[7] = Dispersability for pigment, titanium dioxide
Source text: as §1

[8] = 120° C., 3 g of sample, air flow rate 20 L/Hr, time until conductance of the trapped water started rising, esters of Examples 1-12
[9] = amount of tested sample per 100 g of the pigment at flow point
[10] = amount of tested sample per 100 g of the pigment at wet point

Compound	Index of oxidation stability [1, 8]	Decomposition ratio [2]	Refractive index ([3]; 30° C.)	also measured
isostearic acid dimerdiol ester [Example 11]	8 h	70%	1.4709	
erucic acid dimerdiol ester [Example 3]	3 h	79%	1.4719	
long chain branched fatty acid dimerdiol ester [Example 7]				Index of oxidation stability [1]: 4 h
CC(C)CCCCC(=O)OCC(O)CO (centres unmarked) [glyceryl isooctanoate, reference compound]		8%		
hydrogenated rosin dimerdiol ester [Example 1]	6 h	3%	1.5075	
dimerdiol [PESPOL HP-1000]			1.4778	
CC(C)CCCCCCCCCCCCCCCOC(=O)CC(O)C(=O)OCCCCCCCCCCCCCCCC(C)C (centres unmarked) [di-iostearyl malate, di-isostearyl malate]				Gloss, Candelira wax ([4]; solidified by compounding 20% of candelira wax): 41; Gloss, Ceresin ([4]; solidified by compounding 20% of ceresine): 35; Red 202 F.P [5, 9]: 200 g; Red 202 W.P [5, 10]: 106 g; Red iron oxide W.P [6]: 63 g; Titanium dioxide F.P [7, 9]: 55 g; Titanium dioxide W.P [7, 10]: 26 g; Refractive index ([3]; 20° C.): 1.4611
mono-isostearic acid dimerdiol ester [Example 5]	8 h	71%	1.4659	
